# Measurements from patent US5849865A, “Peptides for altering bone resorption, angiogenesis and restenosis” (La Jolla Cancer Research Foundation, priority 1995, dated 1998).
# “Also recorded” adds a separate entry of the source. Where a SMILES comes first, the peptide text is derived from it. Bridges are numbered along the chain shown (N, C = ends). [ ]: non-standard residue; d: D form. Tic = O=C(O)[C@@H]1Cc2ccccc2CN1; Pen = CC(C)(S)[C@H](N)C(=O)O; Mpa = O=C(O)CCS
# What was measured:
# α5 β1 (FnR) = molecular target: T1, α5 β1 (FnR) (Homo sapiens, UniProt P05556+P08648); assay: α5 β1 ELISA (competitive); format: binding; conditions: comparison of receptor ELISAs
# T1 construct: Fibronectin receptor (FnR) was purified from 100 mM octyl-glucopyranoside-extracted human placenta; from tissue
# Procedure: Peptide binding to purified human α5 β1 (FnR) also as determined using a competitive ELISA. In these assays, […] was immobilized to the wells and the binding of solubilized FnR in the presence of various concentrations of a peptide analogue was determined using a mouse monoclonal antibody to human β1 (clone P4C10; Gibco) and specific binding was visualized using a second antibody.
# Microtiter wells were coated at RT by adding 100 μl of 2 μg/ml human Fn in TBS and incubating the plates overnight at 4° C. Following incubation, the plates were washed 3× with TBS/"TWEEN 20". RGD peptides were diluted in TBS containing 20 mM OG and 2 mM MnCl2 and 50 μl was added to wells at 10-fold serial dilutions. FnR was diluted in the same buffer and 50 μl was added to each well.
# The plates were incubated for 3 hr at RT and washed with 300 μl TBS/"TWEEN 20". Bound receptor was incubated with 100 μl of the monoclonal anti-β1 antibody for 2 hr, then washed 3× with TBS/"TWEEN 20". […] The amount of bound second antibody was determined as described above.
# The IC50 values for various RGD peptides were calculated by determining the concentration of a peptide that inhibited binding of Vn to αv β5 or αv β3 or of Fn to α5 β1 by 50%. The results of these assays are shown in FIG. 2 (columns designated "Receptor Assays").
# αv β3 receptor = molecular target: T2, αv β3 receptor (Homo sapiens, UniProt P05106+P06756); format: binding; conditions: comparison of IC50 values of αv β3 ELISA / JY cells with αv β5 and α5 β1 ELISAs
# T2 construct: The αv β3 receptor was purified from octyl-glucopyranoside-extracted human placenta; from tissue
# Procedure: Peptide binding to purified αv β3 receptor was determined by using a competitive ELISA, in which αv β3 receptor was immobilized and the binding of solubilized VN, in the presence of various concentrations of peptide analogue, was detected using a monoclonal mouse IgG anti-VN antibody and a labelled anti-mouse IgG conjugate.
# 96 well microtiter plates were coated overnight at RT with 100 μl/well of αv β3 receptor (0.5 μg/ml in 1×TBS, 4 mM octylglucoside, 1 mM CaCl2). The wells were blocked with 200 μl/well of 1% BSA in 1×TBS, 1 mM CaCl2 for at least 30 min. The plates were washed 2× with 1×TBS, 1 mM CaCl2. 50 μl peptide in 1×TBS, 1 mM CaCl2, 0.05% "TWEEN 20" (polyoxyethylenesorbitan monolaurate) was added in 10-fold serial dilutions. 50 μl of Vn in the same buffer then was added to each well.
# The plates were incubated for 3 hr at RT, then washed 3× with 1×TBS, 0.05% "TWEEN 20". 100 μl of 8E6 (Telios) diluted to 1:6000 in 1×TBS, 0.05% "TWEEN 20" was added to the wells and the plates were incubated for 1 hr at RT. Plates were washed 3× with 1×TBS, 0.05% "TWEEN 20". Affinity purified goat anti-mouse IgG conjugated to horseradish peroxidase (100 μl/well; BioRad; Hercules Calif.) was added to each well and incubated for 1 hr at RT. Plates were washed 3× with 1×TBS, 0.05% "TWEEN 20". 100 μl/well of substrate mixture (10 mg O-phenylenediamine in 25 ml 0.1M citrate-phosphate buffer, pH 5.0, 6 μl 30% H2 O2) was added to the plates and allowed to develop. The development process was stopped by adding 50 μl to 4N H2 SO4 to each well. The plates were read at 490 nm and the data analyzed by four parameter fit.
# [1] = parathyroid hormone-induced hypercalcemia in mice; format: in vivo, Swiss-Webster mice; conditions: parathyroidectomized mice, 0.2 mg PTH/kg i.v., peptide infused 4 hr
# Source text: Parathyroid hormone (PTH) activates osteoclasts, which are involved in bone resorption. Associated with the increased osteoclast activity is an increase in serum calcium. The PTH-induced hypercalcemia assay measures the level of serum calcium, which is an indication of bone resorption in a subject (Fischer et al., Endocrinology 132:1411-1413 (1993), which is incorporated herein by reference).
# Swiss-Webster mice, which had been parathyroidectomized two weeks prior to beginning the assay, were obtained from Taconic Lab Animals and Services (Germantown N.Y.). Femoral vein catheters (PE-50 fused with PE10 polyethylene tubing; Becton Dickinson; Parsippany, N.J.) were installed in the mice, flushed and locked with heparinized saline (1:10), sutured to adjacent muscle and internalized within the inguinal space of the incision before closing the incision with wound clips. […]
# The experiment was initiated by feeding the mice a calcium-deficient diet overnight, then injecting the mice the following morning with a bolus of 0.2 mg PTH/kg (hPTH 1-34; Bachem; Torrance Calif.), intravenously. […] Various doses of a peptide or vehicle were infused into an animal for 4 hr, then ionized serum calcium again was measured. […] Serum calcium measurements were expressed as the difference between the value 30 min before the PTH pulse and 4 hr after peptide infusion was started. […]
# [2] = series of assays of Examples II and III for potency and selectivity
# Source text: Peptides of the RGDNTic (SEQ ID NO: 56) pharmacophore group are characterized, in general, as having increased potency, whereas the peptides of the pharmacophore RGDDV (SEQ ID NO: 1) group generally have higher receptor selectivity. […] As used herein, the term "potency" or "potent" means that a peptide of the invention is active at a relatively low concentration in the assays described in Examples II and III. A potent peptide of the invention can be identified, for example, using the assays described in Examples II and III.
# The present invention also provides a series of in vitro and in vivo assays useful for screening a panel of peptides in order to identify peptides that can reduce or inhibit bone resorption or that can alter integrin binding such as αv β3 integrin receptor-mediated binding. Such peptides can include, for example, peptides within the pharmacophore groups exemplified herein or peptides within other pharmacophore groups. The series of assays disclosed herein is particularly useful for determining the selectivity and potency of a peptide for reducing or inhibiting bone resorption. The selectivity of a peptide for an integrin receptor involved in osteoclast binding to bone can be determined, for example, using the integrin receptor assays and cell attachment and detachment assays described herein. Use of cell-based assays in conjunction with receptor-based assays is informative because the receptor ELISAs provide useful information regarding the binding characteristics of a particular peptide toward a particular integrin and because the cell-based assays confirm that those characteristics are relevant to the αv β3 receptor or to bone resorption.
# [3] = Choi et al. 1994; cited from earlier work
# osteoclasts = conditions: Sato et al. 1990; EP 437,367; cited from earlier work
# [4] = Fisher et al. 1993; cited from earlier work
Molecule,selectivity toward α5 β1 versus αv β5 (α5 β1 (FnR)),receptor selectivity for αv β3 as compared to αv β5 and α5 β1 (αv β3 receptor),other results
C[C@H](NC(=O)[C@@H]1CSSC(C)(C)[C@H](NC(=O)CN)C(=O)N[C@@H](CCCNC(=N)N)C(=O)N[C@@H](C)C(=O)N[C@@H](CCCNC(=N)N)C(=O)NCC(=O)N[C@@H](CC(=O)O)C(=O)N[C@@H](CC(N)=O)C(=O)N2CCC[C@H]2C(=O)N1)C(=O)O [compound 100] (H-G[Pen]RARGDNPCA-OH; disulfide 2-10),more selective toward α5 β1 than toward αv β5,–,–
CC(C)[C@@H]1NC(=O)[C@H](CC(=O)O)NC(=O)[C@H](CC(=O)O)NC(=O)CNC(=O)[C@H](CCCNC(=N)N)NC(=O)[C@H](C)NC(=O)[C@H](CCCNC(=N)N)NC(=O)[C@@H](NC(=O)CN)C(C)(C)SSC[C@@H](C(=O)N[C@@H](C)C(=O)O)NC1=O [compound 138] (H-G[Pen]RARGDDVCA-OH; disulfide 2-10),–,particularly receptor selective,–
C[C@@H]1NC(=O)[C@H](C)NC(=O)[C@@H](NC(=O)CN)C(C)(C)SSC[C@@H](C(N)=O)NC(=O)[C@H]([C@@H](C)O)NC(=O)[C@H](CC(=O)O)NC(=O)[C@H](CC(=O)O)NC(=O)CNC(=O)[C@H](CCCNC(=N)N)NC1=O [compound 186] (H-G[Pen]AARGDDTC-NH2; disulfide 2-10),–,particularly receptor selective,–
CC(C)[C@@H]1NC(=O)[C@H](CC(=O)O)NC(=O)[C@H](CC(=O)O)NC(=O)CNC(=O)[C@H](CCCNC(=N)N)NC(=O)CCSSC[C@@H](C(N)=O)NC1=O [compound 191] ([Mpa]RGDDVC-NH2; disulfide 1-7),–,–,PTH-induced rise in serum ionized calcium [1]: decreased the PTH-induced rise in serum ionized calcium in a dose responsive manner
CC(=O)N[C@H]1CSSC(C)(C)[C@@H](C(N)=O)NC(=O)[C@@H]2CCCN2C(=O)[C@H](CC(N)=O)NC(=O)[C@H](CC(=O)O)NC(=O)CNC(=O)[C@H](CCCNC(=N)N)NC1=O [compound 228] (Ac-CRGDNP[Pen]-NH2; disulfide 1-7),–,particularly receptor selective,–
C[C@H](NC(=O)[C@@H]1CSSC(C)(C)[C@H](NC(=O)CN)C(=O)N[C@@H](C)C(=O)N[C@@H](C)C(=O)N[C@@H](CCCNC(=N)N)C(=O)NCC(=O)N[C@@H](CC(=O)O)C(=O)N[C@@H](CC(N)=O)C(=O)N2CCC[C@H]2C(=O)N1)C(=O)O [compound 310] (H-G[Pen]AARGDNPCA-OH; disulfide 2-10),more selective toward α5 β1 than toward αv β5,–,–
C[C@@H]1NC(=O)[C@H](CCCNC(=N)N)NC(=O)CNC(=O)CC[C@@H](C(N)=O)NC(=O)[C@@H]2CCCN2C(=O)[C@H](CC(N)=O)NC(=O)[C@H](CC(=O)O)NC(=O)CNC(=O)[C@H](CCCNC(=N)N)NC1=O [compound 390] (GRARGDNPE-NH2; lactam N-9),more selective toward α5 β1 than toward αv β5,–,–
"CC(=O)N[C@H]1CSSC[C@@H](C(N)=O)NC(=O)[C@@H]2Cc3ccccc3CN2C(=O)[C@H](CO)NC(=O)[C@H](CC(=O)O)NC(=O)CNC(=O)[C@H](CCCNC(=N)N)NC1=O [compound 812, Ac-CRGDS(Tic)C-NH2] (Ac-CRGDS[Tic]C-NH2; disulfide 1-7)",–,–,activity of minimal-element peptides (FIG. 2) [2]: demonstrate activity; potency (active at a relatively low concentration) ([2]; summary of assays): particularly potent
N=C(N)NCCC[C@@H]1NC(=O)CC[C@@H](C(N)=O)NC(=O)[C@@H]2CCCN2C(=O)[C@H](CO)NC(=O)[C@H](CC(=O)O)NC(=O)CNC1=O [compound 825] (RGDSPE-NH2; lactam N-6),more selective toward α5 β1 than toward αv β5,–,–
CC(=O)N[C@@H]1C(=O)N[C@@H](Cc2ccccc2)C(=O)N[C@@H](C)C(=O)N[C@@H](CCCNC(=N)N)C(=O)NCC(=O)N[C@@H](CC(=O)O)C(=O)N[C@@H](CC(N)=O)C(=O)N2CCC[C@H]2C(=O)N[C@H](C(N)=O)CSSC1(C)C [peptide 214] (Ac-[Pen]FARGDNPC-NH2; disulfide 1-9),–,–,potency (active at a relatively low concentration) ([2]; summary of assays): particularly potent
CC(C)[C@@H]1NC(=O)[C@H](CC(=O)O)NC(=O)[C@H](CC(=O)O)NC(=O)CNC(=O)[C@H](CCCNC(=N)N)NC(=O)CNC(=O)C[C@@H](C(N)=O)NC1=O [peptide 368] (GRGDDVD-NH2; lactam N-7),–,receptor selective for αv β3; also recorded: selective peptide; also recorded: particularly receptor selective,both potent and selective ([2]; summary of assays): both potent and selective
G(Pen)GRGDSPCA,–,–,neointimal hyperplasia [3]: can inhibit neointimal hyperplasia
echistatin,–,–,bone resorption in vitro (osteoclasts): inhibits bone resorption in vitro; bone resorption in vivo [4]: inhibits bone resorption
